Values quoted from earlier work in patent US20170173097A1, “COMPOSITIONS FOR ENHANCING DETOXIFICATION AND USES THEREOF” (Specialty Nutrition Group, Inc., priority 2014, published 2017).
Where two headings read alike, the source gives them in different places.

Tested on: beta-glucuronidase

O=C([O-])[C@@H](O)[C@@H](O)[C@H](O)[C@@H](O)C(=O)[O-].[Ca+2] [calcium D-glucarate]
inhibition of beta-glucuronidase (in the blood): 57% | inhibition of beta-glucuronidase (in the intestines): 39% | inhibition of beta-glucuronidase (in the liver): 44% | inhibition of beta-glucuronidase (in the lungs): 37%
